Data reported in patent US20260125375A1 (Pfizer Inc., priority 2022, published 2026).
Like-named read-outs stand apart in the source and are kept apart here.

Columns and labels:
C-CBL (residues 46-435) = molecular target: T1, C-CBL (residues 46-435) (Homo sapiens, UniProt P22681); assay: Ligand Displacement Assay (LDA), HTRF competitive binding against BODIPY-labeled fluorescent tracer, C-CBL; conditions: geometric mean of the number of tests, read-out: C-CBL Ki (nM) GMean
T1 construct: Purified CBL-B (residues 36-427) and C-CBL (residues 46-435) proteins from baculovirus-infected insect cells; made in house; host or cells: baculovirus-infected insect cells
T1 sequence (P22681 46-435): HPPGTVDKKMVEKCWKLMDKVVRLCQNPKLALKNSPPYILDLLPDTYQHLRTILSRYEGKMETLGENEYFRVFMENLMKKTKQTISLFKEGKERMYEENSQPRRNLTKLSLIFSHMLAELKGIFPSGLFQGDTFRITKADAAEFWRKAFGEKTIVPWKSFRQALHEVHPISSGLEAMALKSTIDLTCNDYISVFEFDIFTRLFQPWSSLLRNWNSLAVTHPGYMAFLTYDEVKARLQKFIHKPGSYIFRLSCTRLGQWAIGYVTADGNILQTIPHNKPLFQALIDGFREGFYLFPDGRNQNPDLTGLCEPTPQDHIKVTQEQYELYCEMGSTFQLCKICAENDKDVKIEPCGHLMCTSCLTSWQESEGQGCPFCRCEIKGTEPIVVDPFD
How it was run: (§1)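 Ki values, given as geometric means of repeated tests, come from TR-FRET displacement of a BODIPY-labelled tracer from terbium-streptavidin-bound, AviTag-biotinylated protein made in baculovirus-infected insect cells. Compounds ran as three-fold dilutions in duplicate, […], 2% DMSO.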

CBL-B (residues 36-427) = molecular target: T2, CBL-B (residues 36-427) (Homo sapiens, UniProt Q13191); assay: Ligand Displacement Assay (LDA), HTRF competitive binding against BODIPY-labeled fluorescent tracer, CBL-B; conditions: geometric mean of the number of tests, read-out: CBL-B Ki (nM) GMean
T2 construct: Purified CBL-B (residues 36-427) and C-CBL (residues 46-435) proteins from baculovirus-infected insect cells; made in house; host or cells: baculovirus-infected insect cells
How it was run: as §1

C-CBL = molecular target: T3, C-CBL (Homo sapiens, UniProt P22681); assay: Jurkat HiBit-IL2 assay (CBL-B KO), reporter cell line expressing C-CBL only; assay type: cell-based; conditions: geometric mean, read-out: CBL-B KO EC50 (nM) GMean
T3 construct: endogenous in cells; host or cells: Jurkat HiBit-IL2 reporter cells, CBL-B knocked out by CRISPR
From the text: (§2) Jurkat HiBit-IL2 Assay (WT, c-CBL KO, CBL-B KO)
(§3) The purpose of the Jurkat HiBit-IL2 assay is to evaluate the effect of the inhibition of CBL-B and/or C-CBL on TCR/CD28 stimulated interleukin-2 (IL-2) secretion.
(§4) The expression of IL-2 can then be accurately measured by HiBit luciferase assay. Further, C-CBL or CBL-B was knocked out by CRISPR respectively in this Jurkat HiBit-IL2 reporter cell line to create reporter cell line expressing CBL-B only (c-CBL knockout (KO)) or C-CBL only (CBL-B KO).
(§5) All three reporter cell lines were maintained in RPMI-1640 media with GlutaMax, 10% fetal bovine serum, 100 units/ml of penicillin, and 100 μg/ml of streptomycin at 37° C., 5% CO2, at a cell density 1×10e5-2×10e6 viable cells/ml. Serial diluted compounds in DMSO (40 nl/well, final 0.1% DMSO in assay cell culture) were plated into 384-well white-wall clear-bottom cell culture plates. Reporter cells were pelleted and resuspended in fresh cell culture medium to 0.66×10e6 cells/ml and added to the assay plate at 30 μl/well (20,000 cells/well). The cells were incubated with compounds for 1 hour at 37° C., 5% CO2. 10 μl/well of anti-CD3 antibody (OKT3) and anti-CD28 antibody (CD28.2) prediluted in fresh cell culture medium at 4× final concentration (anti-CD3 mAb: 4 μg/ml; anti-CD28 mAb: 8 μg/ml) was added into the cells (final concentration of anti-CD3 mAb: 1 μg/ml; anti-CD28 mAb: 2 μg/ml). The cells were cultured for another 4 hours at 37° C., 5% CO2. The Nano-Glo HiBiT Lytic Reagent was prepared following the manufacturer's protocol. 20 ul/well of the Nano-Glo HiBiT Lytic Reagent was added into the reporter cell culture assay plate and incubated at room temperature (20-25° C.) for 15 minutes. The plates were read on a Perkin-Elmer EnVision plate reader with 0.1 second integration time. Data were normalized to “Fold of Effect” with the anti-CD3 and anti-CD28 antibodies only samples as the baseline activation level and EC50 was calculated. The EC50 (nM) values reported are the geometric means (GMean) of the number of tests conducted.

CBL-B = molecular target: T4, CBL-B (Homo sapiens, UniProt Q13191); assay: Jurkat HiBit-IL2 assay (c-CBL KO), reporter cell line expressing CBL-B only; assay type: cell-based; conditions: geometric mean, read-out: C-CBL KO EC50 (nM) GMean
T4 construct: endogenous in cells; host or cells: Jurkat HiBit-IL2 reporter cells, C-CBL knocked out by CRISPR
From the text: as §2, §3, §4, §5

[1] = CBL-B KO (expressing C-CBL only), Table 16b (further repetition)
[2] = C-CBL KO (expressing CBL-B only), Table 16b (further repetition)
[3] = CBL-B KO (C-CBL only), anti-CD3/anti-CD28 stimulation 4 hours, Table 16a
[4] = c-CBL KO (CBL-B only), anti-CD3/anti-CD28 stimulation 4 hours, Table 16a

| SMILES | Ki (C-CBL (residues 46-435)) | Ki (CBL-B (residues 36-427)) | EC50 (C-CBL; [1]) | EC50 (CBL-B; [2]) | EC50 (C-CBL; [3]) | EC50 (CBL-B; [4]) |
| --- | --- | --- | --- | --- | --- | --- |
| CC(NC[C@H](C)O)c1nc(C(F)(F)F)cc2c(-c3cccc([C@H](c4nncn4C)C4CCCCC4)c3)n[nH]c12 (single isomer, unassigned) [Example C99] | 13.8 nM | 3.1 nM | 323 nM | 44 nM | – | – |
| C[C@@H](c1nc(C(F)(F)F)cc2c(-c3cccc([C@H](c4nncn4C)C4CCC4)c3)n[nH]c12)N1CC[C@H]1CO (single isomer, unassigned) [Example D64] | 58 nM | 8.7 nM | 483 nM | 134 nM | – | – |
| CC(NCC(C)(C)O)c1nc(C(F)(F)F)cc2c(-c3cccc([C@H](c4nncn4C)C4CCC4)c3)n[nH]c12 (single isomer, unassigned) [Example C117] | 83.6 nM | 7.9 nM | 794 nM | 170 nM | – | – |
| C[C@H](CO)N[C@@H](C)c1nc(C(F)(F)F)cc2c(-c3cccc([C@H](c4nncn4C)C4CCC4)c3)n[nH]c12 (single isomer, unassigned) [Example C43] | 87.7 nM | 6.7 nM | 554 nM | 61 nM | 912 nM | 51 nM |
| C[C@@H](NC1(CO)CCC1)c1nc(C(F)(F)F)cc2c(-c3cccc([C@H](c4nncn4C)C4CCC4)c3)n[nH]c12 (single isomer, unassigned) [Example D73] | 157 nM | 12.1 nM | 639 nM | 118 nM | – | – |
| C[C@H](NC1CCC1)c1nc(C(F)(F)F)cc2c(-c3cccc([C@H](c4nncn4C)C4COC4)c3)n[nH]c12 (single isomer, unassigned) [Example C123, N-{(1ξ)-1-[3-{3-[(ξ)-(4-methyl-4H-1,2,4-triazol-3-yl)(oxetan-3-yl)methyl]phenyl}-5-(trifluoromethyl)-1H-pyrazolo[3,4-c]pyridin-7-yl]ethyl}cyclobutanamine] | 189 nM | 19.5 nM | 1070 nM | 185 nM | – | – |
| CC(NC(=O)CO)c1nc(C(F)(F)F)cc2c(-c3cccc([C@H](c4nncn4C)C4CCC4)c3)n[nH]c12 (single isomer, unassigned) [Example I1] | 1.9 nM | 0.8 nM | 163 nM | 29 nM | 182 nM | 16 nM |
| CC(O)CNC(C)c1nc(C2CC2)cc2c(-c3cccc(C(c4nncn4C)C4CCC4)c3)n[nH]c12 (single isomer, unassigned) [Example H2] | 18.3 nM | 1.4 nM | 165 nM | 41 nM | 232 nM | 17 nM |
| C[C@@H](CO)N[C@H](C)c1nc(C(F)(F)F)cc2c(-c3cccc([C@H](c4nncn4C)C4CCC4)c3)n[nH]c12 (single isomer, unassigned) [Example D63] | 67 nM | 8.4 nM | 577 nM | 121 nM | – | – |
| C[C@H](N[C@@H](C)CO)c1nc(C(F)(F)F)cc2c(-c3cccc([C@H](c4nncn4C)C4CCC4)c3)n[nH]c12 (single isomer, unassigned) [Example D27] | 9.1 nM | 1 nM | 209 nM | 24 nM | 194 nM | 11 nM |
| CCC(CC)(CO)N[C@@H](C)c1nc(C(F)(F)F)cc2c(-c3cccc([C@H](c4nncn4C)C4CCC4)c3)n[nH]c12 (single isomer, unassigned) [Example D74] | 366 nM | 31.5 nM | 3400 nM | 639 nM | – | – |
| C[C@@H](N[C@@H]1CC[C@@H]1O)c1nc(C(F)(F)F)cc2c(-c3cccc([C@H](c4nncn4C)C4CCC4)c3)n[nH]c12 (single isomer, unassigned) [Example D29] | 23.7 nM | 1.9 nM | 224 nM | 36 nM | 139 nM | 11 nM |
| CC(C)[C@H]1CNCCN1Cc1nc(C(F)(F)F)cc2c(-c3cccc([C@H](c4nncn4C)C4CCC4)c3)n[nH]c12 [Example D36] | 16.4 nM | 1.4 nM | 454 nM | 52 nM | – | – |
| C[C@H](c1nc(C(F)(F)F)cc2c(-c3cccc([C@H](c4nncn4C)C4CCC4)c3)n[nH]c12)N1CC[C@@H](O)C1 (single isomer, unassigned) [Example D69] | 54.3 nM | 9.3 nM | 490 nM | 154 nM | – | – |
| CC(O)CNC(C)c1nc(C2CC2)cc2c(-c3cccc(C(c4nncn4C)C4CCC4)c3)n[nH]c12 (single isomer, unassigned) [Example H1] | 48.4 nM | 4.3 nM | 485 nM | 103 nM | 559 nM | 44 nM |
| C[C@H](N[C@@H]1COC[C@@H]1O)c1nc(C(F)(F)F)cc2c(-c3cccc([C@H](c4nncn4C)C4CCC4)c3)n[nH]c12 (single isomer, unassigned) [Example D20] | 2.3 nM | 1.7 nM | 31 nM | 11 nM | 30 nM | 4 nM |
| C[C@H](N[C@@H]1COC[C@H]1O)c1nc(C(F)(F)F)cc2c(-c3cccc([C@H](c4nncn4C)C4CCC4)c3)n[nH]c12 (single isomer, unassigned) [Example D59] | 26.6 nM | 2.6 nM | 1260 nM | 267 nM | – | – |
| C[C@@H](N[C@@H]1COC[C@@H]1O)c1nc(C(F)(F)F)cc2c(-c3cccc([C@H](c4nncn4C)C4CCC4)c3)n[nH]c12 (single isomer, unassigned) [Example D56] | 62.3 nM | 6.2 nM | 365 nM | 84 nM | – | – |
